Results reported in patent US20230372318A1, “METHODS FOR TREATING A SUBJECT HAVING MULTIPLE SYSTEM ATROPHY” (Theravance Biopharma R&D IP, LLC, priority 2022, published 2023).

What was measured:
norepinephrine (NE) = test: Plasma norepinephrine levels in Examples 6 and 7; type: in vivo, human; settings: for NE at End of Ex. 6/Start of Ex. 7: 4 weeks; for NE at End of Ex. 6/Start of Ex. 7 / NE on Day 29 of Ex. 7 Open Label: mean ± SD
Description: For pharmacodynamic assessments, blood samples for pharmacodynamic markers (including [dihydroxyphenylglycol] DHPG and NE) were collected after the subject had been seated for approximately 30 minutes.
Blood samples for pharmacodynamic markers ([dihydroxyphenylglycol] DHPG and NE) were collected at select study visits as defined in the Schedule of Study Procedures after the subject had been seated for 30 minutes. This was applicable to all consenting subjects.
Moreover, it has also been discovered that the supine norepinephrine level in a subject having multiple system atrophy continues to increase for at least about 8 weeks when the subject is treated daily with ampreloxetine as shown in Table 8:
Before treatment with ampreloxetine, supine norepinephrine (NE) levels in subjects with MSA are less than about 350 pg/mL. After about 8 weeks of treatment, supine norepinephrine levels are greater than about 500 pg/mL. Supine norepinephrine levels were determined using standard procedures (see, e.g., Goldstein et al., Annals of Neurology, 1989:26(4) 558-563; and Palma et al., Neurology, 2018:91(16) e1539-e1544).

[1] = system: subjects with attention-deficit hyperactivity disorder and fibromyalgia; settings: 5 mg or 20 mg once per day for 6 weeks; cited from earlier work

For `Fc1cc(F)c(OCc2ccccc2C2CCNCC2)c(F)c1` [Ampreloxetine, 4-[2-(2,4,6-trifluorophenoxymethyl)phenyl]piperidine], the “NE at End of Ex. 6/Start of Ex. 7” value (norepinephrine (NE); MSA, Example 6 ampreloxetine 10 mg QD group, start of Ex. 6: 280 ± 138) was 439 ± 250 pg/mL, the “NE on Day 29 of Ex. 7 Open Label” value (norepinephrine (NE); MSA, Example 6 ampreloxetine 10 mg QD group, about 8 weeks) was 539 ± 361 pg/mL and the “NE on Day 29 of Ex. 7 Open Label” value (norepinephrine (NE); MSA, Example 6 placebo group, received ampreloxetine in open-label part, start of Ex. 7: 291 ± 173) was 557 ± 298 pg/mL. For the same compound, the “NE at End of Ex. 6/Start of Ex. 7” value (norepinephrine (NE); PAF, Example 6 ampreloxetine 10 mg QD group, start of Ex. 6: 232 ± 110) was 357 ± 204 pg/mL, the “NE on Day 29 of Ex. 7 Open Label” value (norepinephrine (NE); PAF, Example 6 ampreloxetine 10 mg QD group, about 8 weeks) was 455 ± 238 pg/mL and the “NE on Day 29 of Ex. 7 Open Label” value (norepinephrine (NE); PAF, Example 6 placebo group, received ampreloxetine in open-label part, start of Ex. 7: 156 ± 82) was 267 ± 87 pg/mL. For the same compound, the “NE at End of Ex. 6/Start of Ex. 7” value (norepinephrine (NE); PD, Example 6 ampreloxetine 10 mg QD group, start of Ex. 6: 340 ± 237) was 407 ± 154 pg/mL, the “NE on Day 29 of Ex. 7 Open Label” value (norepinephrine (NE); PD, Example 6 ampreloxetine 10 mg QD group, about 8 weeks) was 552 ± 270 pg/mL and the “NE on Day 29 of Ex. 7 Open Label” value (norepinephrine (NE); PD, Example 6 placebo group, received ampreloxetine in open-label part, start of Ex. 7: 340 ± 266) was 443 ± 157 pg/mL. The Supine norepinephrine levels (norepinephrine (NE); subjects with MSA, after about 8 weeks of treatment, before treatment less than about 350) was “greater than 500 pg/mL” and the Safety and tolerability [1] was “generally well tolerated with no clinically significant safety signals”.
